Patent publication US12344614B2, “Benzodiazepine derivatives as GABA a GAMMA1 PAM” (Hoffmann-La Roche Inc., priority 2021, dated 2025)
pKi: −log10 of the molar value. Like-named read-outs stand apart in the source and are kept apart here.

Legend:
[1] = target: human GABAA α5β2γ1 receptor (Homo sapiens (Human), UniProt P31644+Q8N1C3); test: Radioligand binding assay, competition for [3H]RO7239181, membranes from HEK293F cells
Description: The affinity of compounds at GABAA γ1 subunit-containing receptors was measured by competition for [^3H]RO7239181 (67.3 Ci/mmol; Roche) binding to membranes from HEK293F cells (ThermoFisher R79007) expressing human (transiently transfected) receptors of composition α5β2γ1, α2β2γ1, α1β2γ1. For better protein expression of the α2 subunit-containing receptors, the 28 amino acid long signal peptide (Met1 to Ala28) of the human GABAA α2 subunit was substituted by the 31 amino acid long signal peptide (Met1 to Ser31) of human GABAA α5 subunit.
(§1) Harvested pellets from HEK293F cells expressing the different GABAA receptor subtypes were resuspended in Mannitol Buffer pH 7.2-7.4 (Mannitol 0.29M, Triethylamine 10 mM, Acetic acid 10 mM, EDTA 1 mM plus protease inhibitors (20 tablets Complete, Roche Diagnostics Cat. No. 05 056 489 001 per liter)), washed two times and then resuspended at 1:10 to 1:15 dilution in the same buffer. Cell disruption was performed by stirring the suspension in a Parr vessel #4637 at 435 psi for 15 minutes, and then the suspensions were centrifuged at 1000×g for 15 minutes at 4° C. (Beckman Avanti J-HC; rotor JS-4.2). The supernatant (S1) was transferred in a 21 Schott flask and the pellet (P1) was resuspended with Mannitol Buffer up to 175 ml. The resuspended pellet was transferred into a 250 ml Corning centrifugal beaker and centrifuged at 1500×g for 10 minutes at 4° C. (Beckman Avanti J-HC; rotor JS-4.2). The supernatant (S1) was then transferred in the 21 Schott flask and the pellet was discarded. The supernatants (S1) were centrifuged in 500 ml Beckman polypropylene centrifugal beaker at 15′000×g for 30 minutes at 4° C. (Beckman Avanti J-20 XP; rotor JLA-10.500). The pellet (P2) was resuspended with Mannitol Buffer 1:1 and frozen at −80° C. The supernatant (S2) was centrifuged in 100 ml Beckman polypropylene centrifugal tubes at 48000×g for 50 minutes at 4° C. (Beckman Avanti J-20 XP; rotor JA-18). The supernatant (S3) was discarded and the pellet (P3) was resuspended with 1:1 Mannitol Buffer. The P2 and P3 protein concentration was determined with the BIORAD Standard assay method with bovine serum albumin as standard and measured on the NANO-Drop 1000. The membrane suspension was aliquots (500 μl per tube) and stored at −80° C. until required.
(§2) Membrane homogenates were resuspended and polytronised (Polytron PT1200E Kinematica AG) in Potassium Phosphate 10 mM, KCl 100 mM binding buffer at pH 7.4 to a final assay concentration determined with a previous experiment.
Radioligand binding assays were carried out in a volume of 200 μL (96-well plates) which contained 100 μL of cell membranes, [^3H]RO7239181 at a concentration of 1.5 nM (α5β2γ1) or 20-30 nM (α1β2γ1, α2β2γ1) and the test compound in the range of [0.3-10000]×10^−9 M. Nonspecific binding was defined by 10×10^−6 (α5β2γ1) and 30×10^−6 M RO7239181 and typically represented less than 5% (α5β2γ1) and less than 20% (α1β2γ1, α2β2γ1) of the total binding. Assays were incubated to equilibrium for 1 hour at 4° C. and then, membranes were filtered onto unifilter (96-well white microplate with bonded GF/C filters preincubated 20-50 minutes in 0.3% Polyethylenimine) with a Filtermate 196 harvester (Packard BioScience) and washed 4 times with cold Potassium Phosphate 10 mM pH 7.4, KCl 100 mM binding buffer. After anhydrousing, filter-retained radioactivity was detected by liquid scintillation counting. Ki values were calculated using Excel-Fit (Microsoft) and are the means of two determinations.
Representative test results, obtained by the above described assay measuring binding affinity to HEK293 cells expressing human (h) receptors, are shown in the Table 1.

[2] = target: human GABAA α2β2γ1 receptor (Homo sapiens (Human), UniProt P47869+Q8N1C3); test: as above
Description: The affinity of compounds at GABAA γ1 subunit-containing receptors was measured by competition for [^3H]RO7239181 (67.3 Ci/mmol; Roche) binding to membranes from HEK293F cells (ThermoFisher R79007) expressing human (transiently transfected) receptors of composition α5β2γ1, α2β2γ1, α1β2γ1.
as §1, §2
Assays were incubated to equilibrium for 1 hour at 4° C. and then, membranes were filtered onto unifilter (96-well white microplate with bonded GF/C filters preincubated 20-50 minutes in 0.3% Polyethylenimine) with a Filtermate 196 harvester (Packard BioScience) and washed 4 times with cold Potassium Phosphate 10 mM pH 7.4, KCl 100 mM binding buffer. After anhydrousing, filter-retained radioactivity was detected by liquid scintillation counting. Ki values were calculated using Excel-Fit (Microsoft) and are the means of two determinations.

[3] = read-out: Ki h-GABAA α2β2γ1, [3H]RO7239181 20-30 nM, HEK293F membranes, 1 hour at 4° C., mean of two determinations

C[C@@H]1N=C(c2cc(O)ccc2F)c2c(ccc(Cl)c2Cl)-n2ccc(=O)nc21 [Example 5, (5S)-8,9-dichloro-7-(2-fluoro-5-hydroxy-phenyl)-5-methyl-5H-pyrimido[1,2-a][1,4]benzodiazepin-3-one] showed a pKi [1] of 9.41, a pKi [2] of 8.85 and a pKi [2, 3] of 8.85.

For Cc1nnc2n1-c1ccc(C(F)(F)F)c(Cl)c1C(c1cc(O)ccc1F)=NC2 [Example 9, 3-[7-chloro-1-methyl-8-(trifluoromethyl)-4H-[1,2,4]triazolo[4,3-a][1,4]benzodiazepin-6-yl]-4-fluoro-phenol], the pKi [1] was 9.07, the pKi [2] was 8.49 and the pKi [2, 3] was 8.49.

COC1CN(C(=O)c2nc3n(n2)-c2ccc(C(F)(F)F)c(Cl)c2C(c2cc(O)ccc2F)=NC3)C1 [Example 16, [7-chloro-6-(2-fluoro-5-hydroxy-phenyl)-8-(trifluoromethyl)-4H-[1,2,4]triazolo[1,5-a][1,4]benzodiazepin-2-yl]-(3-methoxyazetidin-1-yl)methanone] was tested, and the pKi [1] was 8.98, the pKi [2] was 8.44 and the pKi [2, 3] was 8.44.

C[C@@H]1N=C(c2c(F)ccc(O)c2F)c2c(ccc(Cl)c2Cl)-n2ccc(=O)nc21 [Example 18, (5S)-8,9-dichloro-7-(2,6-difluoro-3-hydroxy-phenyl)-5-methyl-5H-pyrimido[1,2-a][1,4]benzodiazepin-3-one] gave a pKi [1] of 8.89, a pKi [2] of 8.18 and a pKi [2, 3] of 8.18.

Molecule Oc1ccc(F)c(C2=NCc3nncn3-c3ccc(C(F)(F)F)c(Cl)c32)c1 [Example 10, 3-[7-chloro-8-(trifluoromethyl)-4H-[1,2,4]triazolo[4,3-a][1,4]benzodiazepin-6-yl]-4-fluoro-phenol] has a pKi [1] of 9.57, a pKi [2] of 8.98 and a pKi [2, 3] of 8.98.

CN1C(=O)CN=C(c2c(F)ccc(O)c2F)c2c1ccc(Cl)c2Cl [Example 12, 6,7-dichloro-5-(2,6-difluoro-3-hydroxy-phenyl)-1-methyl-3H-1,4-benzodiazepin-2-one] showed a pKi [1] of 9.34, a pKi [2] of 8.67 and a pKi [2, 3] of 8.67.

For C[C@@H]1N=C(c2nc(O)ccc2F)c2c(ccc(C(F)(F)F)c2Cl)-n2c1nc1c2CCC1 [Example 24, 6-[(10S)-6-chloro-10-methyl-5-(trifluoromethyl)-1,9,12-triazatetracyclo[9.6.0.02,7.013,17]heptadeca-2(7),3,5,8,11,13(17)-hexaen-8-yl]-5-fluoro-pyridin-2-ol], the pKi [1] was 8.07, the pKi [2] was 8.18 and the pKi [2, 3] was 8.18.
